Test results from ChEMBL document CHEMBL4602703, “Lead Optimization of a Pyrrole-Based Dihydroorotate Dehydrogenase Inhibitor Series for the Treatment of Malaria” (J Med Chem, 2020).
Converted amounts (≈) assume the structure as drawn.

Columns and labels:
[1] = Inhibition of yeast DHODH transformed in Plasmodium falciparum D10 in presence of 10 uM proguanil; set-up: species or system Saccharomyces cerevisiae
[2] = tested on: HepG2; assay: Cytotoxicity against human HepG2 cells assessed as reduction in cell viability; type: cell-based
[3] = tested on: L1210; assay: Cytotoxicity against mouse L1210 cells assessed as reduction in cell viability; type: cell-based
[4] = molecular target: Voltage-gated inwardly rectifying potassium channel KCNH2 (Homo sapiens, UniProt Q12809); assay: Inhibition of human ERG by IonWorks patch clamp electrophysiology assay
[5] = molecular target: Potassium voltage-gated channel subfamily A member 5 (Homo sapiens, UniProt P22460); assay: Inhibition of human Kv1.5 by IonWorks patch clamp electrophysiology assay
[6] = Protein binding in human plasma by LC-MS analysis based ultracentrifugation assay; type: ADME, cell-free; details: read-out: PPB (converted)
[7] = Protein binding in DMEM medium containing 10% fetal calf serum by LC-MS analysis based ultracentrifugation assay; type: ADME, cell-free, Bos taurus; details: cattle, DMEM medium containing 10% fetal calf serum; read-out: PB (converted)
[8] = molecular target: Cytochrome P450 2C9 (Homo sapiens, UniProt P11712); assay: Inhibition of CYP2C9 in human liver microsomes using tolbutamide as substrate measured for 10 to 30 mins in presence of NADPH regenerating system by UPLC-MS analysis; type: ADME
[9] = molecular target: T1, Cytochrome P450 2C19 (Homo sapiens, UniProt P33261); assay: Inhibition of CYP2C19 in human liver microsomes using (S)-mephenytoin as substrate measured for 10 to 30 mins in presence of NADPH regenerating system by UPLC-MS analysis; type: ADME
[10] = molecular target: T2, Cytochrome P450 2D6 (Homo sapiens, UniProt P10635); assay: Inhibition of CYP2D6 in human liver microsomes using dextromethorphan as substrate measured for 10 to 30 mins in presence of NADPH regenerating system by UPLC-MS analysis; type: ADME
[11] = Apparent half life in Swiss mouse at 18.3 mg/kg, po via gavage measured up to 24 hrs by UPLC-MS analysis; type: ADME, organism-based; details: in vivo
[12] = Oral bioavailability in Swiss mouse at 18.3 mg/kg dosed via gavage measured up to 24 hrs by UPLC-MS analysis; type: ADME, organism-based; details: in vivo
[13] = Apparent half life in Swiss mouse at 50 mg/kg, po via gavage measured up to 24 hrs by UPLC-MS analysis; type: ADME, organism-based; details: in vivo
[14] = AUC (0 to infinity) in Swiss mouse blood at 50 mg/kg, po via gavage measured up to 24 hrs by UPLC-MS analysis; type: ADME, organism-based; set-up: dose 50 mg/kg, time infinity, route oral; details: in vivo
[15] = Apparent half life in Sprague-Dawley rat at 3 mg/kg, po administered via gavage measured up to 24 hrs by LC-MS analysis; type: ADME, organism-based; details: in vivo
[16] = AUC (0 to infinity) in Sprague-Dawley rat at 3 mg/kg, po administered via gavage measured up to 24 hrs by LC-MS analysis; type: ADME, organism-based; set-up: dose 3 mg/kg, route oral, time infinity; details: in vivo
[17] = Cmax in Sprague-Dawley rat at 33 mg/kg, po administered via gavage measured up to 24 hrs by LC-MS analysis; type: ADME, organism-based; set-up: dose 33 mg/kg, route oral; details: in vivo
[18] = Cmax in NOD-SCID IL2Rgamma null mouse blood infected with Plasmodium falciparum 3D70087/N9 at 10 mg/kg, po qd for 4 days starting from 3 days post infection and measured after 24 hrs post dose by LC-MS/MS analysis; type: ADME, organism-based; set-up: dose 10 mg/kg, route oral
[19] = AUC (0 to 23 hrs) in NOD-SCID IL2Rgamma null mouse blood infected with Plasmodium falciparum 3D70087/N9 at 10 mg/kg, po qd for 4 days starting from 3 days post infection and measured after 24 hrs post dose by LC-MS/MS analysis; type: ADME, organism-based; set-up: dose 10 mg/kg, time < 23 hr, route oral
[20] = AUC (0 to 23 hrs) in NOD-SCID IL2Rgamma null mouse blood infected with Plasmodium falciparum 3D70087/N9 at 50 mg/kg, po qd for 4 days starting from 3 days post infection and measured after 24 hrs post dose by LC-MS/MS analysis; type: ADME, organism-based; set-up: dose 50 mg/kg, time < 23 hr, route oral
[21] = molecular target: Albumin (Homo sapiens, UniProt P02768); assay: Binding affinity to albumin (unknown origin) by chromatographic method; type: ADME; details: albumin, read-out: PB (converted)
[22] = molecular target: T3, Cytochrome P450 1A2 (Homo sapiens, UniProt P05177); assay: Time-dependent inhibition of CYP1A2 in human liver microsomes using phenacetin as substrate in presence of NADPH regenerating system by UPLC-MS analysis; type: ADME
T3 sequence (P05177 whole entry): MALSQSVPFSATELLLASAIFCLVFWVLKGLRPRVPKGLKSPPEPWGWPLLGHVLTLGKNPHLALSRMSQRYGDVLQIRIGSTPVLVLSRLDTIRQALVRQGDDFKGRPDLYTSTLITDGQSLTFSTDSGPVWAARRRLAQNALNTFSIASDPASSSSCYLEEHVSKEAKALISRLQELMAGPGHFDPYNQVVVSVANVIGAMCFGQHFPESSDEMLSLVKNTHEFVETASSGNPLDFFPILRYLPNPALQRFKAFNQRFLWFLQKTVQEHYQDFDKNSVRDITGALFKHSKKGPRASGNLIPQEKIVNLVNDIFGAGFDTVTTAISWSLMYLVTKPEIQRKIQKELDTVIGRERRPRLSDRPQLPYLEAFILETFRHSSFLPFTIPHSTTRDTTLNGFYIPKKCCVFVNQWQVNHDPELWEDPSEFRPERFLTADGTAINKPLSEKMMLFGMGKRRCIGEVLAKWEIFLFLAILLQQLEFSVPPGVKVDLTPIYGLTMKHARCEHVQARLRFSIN

[23] = molecular target: T1, Cytochrome P450 2C19; assay: Time-dependent inhibition of CYP2C19 in human liver microsomes using (S)-mephenytoin as substrate in presence of NADPH regenerating system by UPLC-MS analysis; type: ADME
[24] = molecular target: T2, Cytochrome P450 2D6; assay: Time-dependent inhibition of CYP2D6 in human liver microsomes using dextromethorphan as substrate in presence of NADPH regenerating system by UPLC-MS analysis; type: ADME
[25] = molecular target: T3, Cytochrome P450 1A2; assay: Time-dependent inhibition of CYP1A2 in human liver microsomes using phenacetin as substrate in absence of NADPH regenerating system by UPLC-MS analysis; type: ADME
[26] = Toxicity in Plasmodium falciparum 3D70087/N9 infected NOD-SCID IL2Rgamma null mouse at 50 mg/kg, po administered once daily for 4 days measured 24 hrs post dose; type: organism-based; details: in vivo
[27] = simulated gi fluid, pH 1.6
[28] = tested on: Plasmodium falciparum
[29] = physchem; details: octanol/water, pH 7.4
[30] = molecular target: T4, CYP3A4/5 (Homo sapiens, UniProt P08684+P20815); assay: in vitro; details: liver microsomes, probe testosterone
[31] = molecular target: T4, CYP3A4/5; assay: in vitro; details: liver microsomes, probe midazolam
[32] = tested on: Plasmodium falciparum; assay: animal or person; details: 3D70087/N9, in Mus musculus, po, 96 h
[33] = Cmax in Swiss mouse blood at 10.5 mg/kg, po via gavage measured up to 24 hrs by UPLC-MS analysis; details: in vivo

T1 sequence (P33261 whole entry): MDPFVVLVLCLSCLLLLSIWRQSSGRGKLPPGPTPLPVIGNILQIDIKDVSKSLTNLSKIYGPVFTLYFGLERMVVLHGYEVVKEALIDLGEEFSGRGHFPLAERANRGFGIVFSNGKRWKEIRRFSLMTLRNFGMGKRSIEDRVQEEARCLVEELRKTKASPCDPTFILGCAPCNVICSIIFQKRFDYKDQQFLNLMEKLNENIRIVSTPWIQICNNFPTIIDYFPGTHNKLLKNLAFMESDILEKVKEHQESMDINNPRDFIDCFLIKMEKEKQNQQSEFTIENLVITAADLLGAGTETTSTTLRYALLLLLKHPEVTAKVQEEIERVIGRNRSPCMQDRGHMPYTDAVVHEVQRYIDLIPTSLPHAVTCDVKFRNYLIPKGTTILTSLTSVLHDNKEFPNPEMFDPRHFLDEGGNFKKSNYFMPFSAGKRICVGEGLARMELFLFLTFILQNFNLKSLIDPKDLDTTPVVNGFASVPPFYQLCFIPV
T2 sequence (P10635 whole entry): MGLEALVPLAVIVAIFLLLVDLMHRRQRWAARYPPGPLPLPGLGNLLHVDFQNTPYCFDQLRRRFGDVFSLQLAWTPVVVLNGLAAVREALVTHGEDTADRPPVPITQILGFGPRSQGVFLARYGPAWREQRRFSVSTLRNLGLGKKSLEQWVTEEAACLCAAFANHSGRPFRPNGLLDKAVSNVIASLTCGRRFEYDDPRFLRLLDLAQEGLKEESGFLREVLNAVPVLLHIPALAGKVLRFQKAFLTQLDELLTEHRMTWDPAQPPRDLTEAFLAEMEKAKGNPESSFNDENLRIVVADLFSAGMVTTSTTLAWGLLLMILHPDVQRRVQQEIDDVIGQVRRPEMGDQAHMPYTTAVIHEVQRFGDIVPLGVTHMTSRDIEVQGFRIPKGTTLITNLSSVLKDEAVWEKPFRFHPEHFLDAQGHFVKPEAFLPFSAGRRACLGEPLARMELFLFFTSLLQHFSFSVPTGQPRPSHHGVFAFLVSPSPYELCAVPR
Chain of Cytochrome P450 2C9 (P11712 whole entry): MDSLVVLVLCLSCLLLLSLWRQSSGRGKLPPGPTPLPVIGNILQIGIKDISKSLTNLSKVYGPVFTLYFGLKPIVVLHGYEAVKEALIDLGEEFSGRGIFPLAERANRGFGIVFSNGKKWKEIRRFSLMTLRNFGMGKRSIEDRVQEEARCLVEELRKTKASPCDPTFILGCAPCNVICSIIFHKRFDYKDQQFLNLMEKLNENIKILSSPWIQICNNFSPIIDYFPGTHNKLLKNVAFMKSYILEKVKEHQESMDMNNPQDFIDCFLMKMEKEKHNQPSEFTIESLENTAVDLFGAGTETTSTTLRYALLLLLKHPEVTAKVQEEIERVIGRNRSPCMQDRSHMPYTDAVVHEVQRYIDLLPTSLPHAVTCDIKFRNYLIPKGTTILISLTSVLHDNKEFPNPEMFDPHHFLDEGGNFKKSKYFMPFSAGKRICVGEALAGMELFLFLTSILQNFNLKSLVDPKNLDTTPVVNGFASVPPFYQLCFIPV
Chain of Voltage-gated inwardly rectifying potassium channel KCNH2 (Q12809 whole entry): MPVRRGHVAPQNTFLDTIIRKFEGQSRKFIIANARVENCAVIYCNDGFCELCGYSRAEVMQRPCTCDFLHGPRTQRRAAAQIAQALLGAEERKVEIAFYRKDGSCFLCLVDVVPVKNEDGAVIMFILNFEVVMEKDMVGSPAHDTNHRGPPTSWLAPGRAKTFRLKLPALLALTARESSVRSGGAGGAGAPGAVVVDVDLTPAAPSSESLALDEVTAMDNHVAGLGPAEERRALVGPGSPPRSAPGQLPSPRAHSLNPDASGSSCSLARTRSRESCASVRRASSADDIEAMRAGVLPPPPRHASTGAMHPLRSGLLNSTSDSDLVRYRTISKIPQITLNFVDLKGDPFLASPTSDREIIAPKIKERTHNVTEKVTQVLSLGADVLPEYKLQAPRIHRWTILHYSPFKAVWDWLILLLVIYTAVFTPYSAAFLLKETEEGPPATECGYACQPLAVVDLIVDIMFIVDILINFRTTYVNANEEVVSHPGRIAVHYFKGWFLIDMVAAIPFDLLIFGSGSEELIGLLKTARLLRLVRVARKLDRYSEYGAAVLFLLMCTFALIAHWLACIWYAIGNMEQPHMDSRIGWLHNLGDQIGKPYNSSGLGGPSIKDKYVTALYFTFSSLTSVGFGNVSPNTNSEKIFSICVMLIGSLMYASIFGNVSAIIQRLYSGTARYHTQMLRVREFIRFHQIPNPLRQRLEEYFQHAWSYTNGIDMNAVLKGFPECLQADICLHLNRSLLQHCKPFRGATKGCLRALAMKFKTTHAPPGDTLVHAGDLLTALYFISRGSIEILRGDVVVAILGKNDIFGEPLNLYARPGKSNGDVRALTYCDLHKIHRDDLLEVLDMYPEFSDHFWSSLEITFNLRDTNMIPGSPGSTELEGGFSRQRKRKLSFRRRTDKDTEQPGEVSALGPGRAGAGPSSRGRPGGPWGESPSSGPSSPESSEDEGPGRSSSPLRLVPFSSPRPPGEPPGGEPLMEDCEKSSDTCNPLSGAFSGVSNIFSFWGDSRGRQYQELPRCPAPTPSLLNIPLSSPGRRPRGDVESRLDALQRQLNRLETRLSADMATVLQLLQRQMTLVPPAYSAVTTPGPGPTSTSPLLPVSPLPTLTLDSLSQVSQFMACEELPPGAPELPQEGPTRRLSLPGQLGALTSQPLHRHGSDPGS
Chain of Potassium voltage-gated channel subfamily A member 5 (P22460 whole entry): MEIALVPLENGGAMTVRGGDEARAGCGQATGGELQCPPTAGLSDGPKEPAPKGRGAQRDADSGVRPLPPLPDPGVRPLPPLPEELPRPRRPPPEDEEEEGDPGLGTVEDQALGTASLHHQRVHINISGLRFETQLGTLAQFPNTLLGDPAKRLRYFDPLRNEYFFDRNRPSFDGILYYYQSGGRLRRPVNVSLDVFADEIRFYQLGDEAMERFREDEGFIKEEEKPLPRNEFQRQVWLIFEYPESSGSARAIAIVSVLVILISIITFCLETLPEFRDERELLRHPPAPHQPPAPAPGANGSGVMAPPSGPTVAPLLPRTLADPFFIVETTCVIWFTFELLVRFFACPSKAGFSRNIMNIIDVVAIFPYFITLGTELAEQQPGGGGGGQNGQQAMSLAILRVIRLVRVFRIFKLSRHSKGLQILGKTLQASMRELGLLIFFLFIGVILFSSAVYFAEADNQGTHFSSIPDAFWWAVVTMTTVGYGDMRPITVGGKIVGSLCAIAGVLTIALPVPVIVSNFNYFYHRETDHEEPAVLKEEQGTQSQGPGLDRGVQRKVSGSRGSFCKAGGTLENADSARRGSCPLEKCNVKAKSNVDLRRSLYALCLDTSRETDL
Chain of Albumin (P02768 whole entry): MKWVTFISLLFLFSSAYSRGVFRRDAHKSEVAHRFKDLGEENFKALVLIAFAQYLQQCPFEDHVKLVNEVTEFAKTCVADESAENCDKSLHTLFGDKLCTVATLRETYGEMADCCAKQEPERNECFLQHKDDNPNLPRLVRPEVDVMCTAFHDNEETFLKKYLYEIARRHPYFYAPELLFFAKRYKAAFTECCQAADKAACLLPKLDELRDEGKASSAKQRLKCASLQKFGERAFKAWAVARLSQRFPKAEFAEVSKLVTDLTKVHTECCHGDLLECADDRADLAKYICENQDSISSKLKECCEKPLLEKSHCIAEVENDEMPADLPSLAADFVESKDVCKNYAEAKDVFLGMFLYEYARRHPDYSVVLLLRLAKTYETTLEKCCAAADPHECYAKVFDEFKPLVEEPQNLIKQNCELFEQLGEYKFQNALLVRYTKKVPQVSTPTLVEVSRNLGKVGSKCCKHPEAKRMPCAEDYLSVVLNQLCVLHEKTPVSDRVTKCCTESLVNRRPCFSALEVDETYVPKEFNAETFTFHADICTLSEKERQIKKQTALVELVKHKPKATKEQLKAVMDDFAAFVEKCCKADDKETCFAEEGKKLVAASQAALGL

## Cc1c(Cc2ccc(C(F)(F)F)nc2)c[nH]c1C(=O)NC1CC1
[1]
  EC50: > 20 µM
[2]
  CC50: > 50 µM
[3]
  CC50: > 50 µM
[4]
  EC50: > 33 µM
[5]
  EC50: > 11 µM
[6]
  fraction unbound: 0.1
[7]
  fraction unbound: 0.685
[8]
  IC50: > 20 µM
[9]
  IC50: > 20 µM
[10]
  IC50: > 20 µM
[11]
  t1/2(app): 2.6 h
[12]
  F: > 100%
[13]
  t1/2(app): 3.6 h
[14]
  AUC: 176 µM·h
[15]
  t1/2(app): 3.9 h
[16]
  AUC: 5.1 µM·h
[17]
  Cmax: 27 µM
[18]
  Cmax: 0.6 µM
[19]
  AUC at 23 h: 2.1 µM·h
[20]
  AUC at 23 h: 26.7 µM·h
[21]
  fraction unbound: 0.238
[22]
  TDI: Not Active
[23]
  TDI: Not Active
[24]
  TDI: Not Active
[25]
  TDI: Not Active
[26]
  Activity: Toxic
[27]
  solubility: 46.4 µg/mL (≈ 144 µM)
[28]
  fEC50: 0.0077 µM
[29]
  logD: 2.8
[30]
  IC50: > 20 µM
[31]
  IC50: > 20 µM
[32]
  ED90: 50 mg/kg/day
[33]
  Cmax: 3.7 µM
